Reference: PubChem BioAssay AID1549 (Sanford-Burnham Center for Chemical Genomics, 2009)
Active and inactive are the calls of the source. The rule behind the calls is not given here.

Biological target: Influenza A virus M2 proton channel (A/TW/4845/1999 H1N1)
Experiment: M2 proton channel binding, NMR based, influenza A virus H1N1 strain (AID 1549)
Conditions: NMR binding screen, M2 protein

| SMILES | Kd |
| --- | --- |
| O=C(Cc1cccs1)Nc1ccccn1 | > 4 mM (inactive) |
| CC12CN([N+](=O)[O-])C3(C(N)=O)CC1CCC23C (configuration not stated) | > 4 mM (inactive) |
| Cn1ncc(CO)c1-c1ccccc1 | > 4 mM (inactive) |
| O=[N+]([O-])c1cccc(-c2nnco2)c1 | > 4 mM (inactive) |
| CCOC(=O)C1CN(C)CCN1C (configuration not stated) | > 4 mM (inactive) |
| COc1c(-c2coc3cc4c(cc3c2=O)CC(OC(C)=O)C(C)(C)O4)ccc2c1C=CC(C)(C)O2 (configuration not stated) | > 4 mM (inactive) |
| O=C(CN1CCOCC1)Nc1nccs1 | > 4 mM (inactive) |
| Cc1noc(C)c1C(=O)NCc1ccco1 | > 4 mM (inactive) |
| COc1cc(O)c2c(=O)c(O)c(-c3ccc(O)c(O)c3)oc2c1 | > 4 mM (inactive) |
| CCSc1nc(N)c(NC(=O)c2ccco2)c(=O)[nH]1 | > 4 mM (inactive) |
| COc1ccc(-c2coc3cc(OC)cc(OC)c3c2=O)cc1 | > 4 mM (inactive) |
| CC(=O)NC(C)(C)C1CC=C(C)/C(=N\O)C1 (configuration not stated) | > 4 mM (inactive) |
| O=C(NCc1ccccn1)c1ccccc1Cl | > 4 mM (inactive) |
| O=P(O)(Cc1ccccc1)c1ccccc1 | > 4 mM (inactive) |
| COc1ccc2c(c1)OC/C(=C/c1ccc(OC)c(OC)c1)C2=O | > 4 mM (inactive) |
| CN(C)S(=O)(=O)N1CCc2ccccc21 | > 4 mM (inactive) |
| NC(=O)NC(=O)Nc1ccc(Cl)cc1 | > 4 mM (inactive) |
| C=C[C@@](C)(O)CCC1C(=C)CCC2[C@@](C)(CO)CCC[C@]12C (some centres not stated) | > 4 mM (inactive) |
| CCc1nnc(NC(C)=O)s1 | > 4 mM (inactive) |
| O=C(NCc1ccco1)c1ccc(=O)[nH]c1 | > 4 mM (inactive) |
| O=C(O)c1ccc(N2CCCCC2)cc1 | > 4 mM (inactive) |
| CC(C1OC(C)(C)C(O)C1O)[C@@H]1CC[C@]2(C)C3=CCC4C(C)(C)C(=O)CC[C@]4(C)C3CC[C@@]12C (some centres not stated) | > 4 mM (inactive) |
| CC(=O)Nc1ccc(C(=O)N2CCOCC2)cc1Cl | > 4 mM (inactive) |
| O=c1cc(O)nc(SCc2ccccc2)[nH]1 | > 4 mM (inactive) |

| SMILES | Kd |
| --- | --- |
| O=C1CSC2(CN3CCC2CC3)N1 (configuration not stated) | > 4 mM (inactive) |
| CSc1nnc(CN2CCSCC2)n1C | > 4 mM (inactive) |
| COC(=O)[C@@H]1OC(=O)[C@H]2O[C@@]23[C@@]1(C)CCC1[C@@]2(C)CCC(=O)C(C)(C)C2C[C@@H](OC(C)=O)[C@]13C (some centres not stated) | > 4 mM (inactive) |
| CC(=O)Nc1nnc(-c2ccncc2)s1 | > 4 mM (inactive) |
| COc1cc(C)c(Cl)cc1S(=O)(=O)N(C)C | > 4 mM (inactive) |
| COCC(=O)N1CCCc2ccccc21 | > 4 mM (inactive) |
| Cn1cnnc1SCC(=O)Nc1nccs1 | > 4 mM (inactive) |
| c1coc(CNc2nc(-c3ccncc3)cs2)c1 | > 4 mM (inactive) |
| S=C(NC1=NCCS1)Nc1ccccc1 | > 4 mM (inactive) |
| Cc1[nH]c(=O)[nH]c(=O)c1N1CCOCC1 | > 4 mM (inactive) |
| OCc1snnc1-c1ccccc1 | > 4 mM (inactive) |
| O=C1C2C3C=CC(C3)C2C(=O)N1c1ccccn1 (configuration not stated) | > 4 mM (inactive) |
| COc1c(C(=O)N2CCCC2)ccc2ccccc12 | > 4 mM (inactive) |
| Cn1c(=O)cc(N2CCCCC2)[nH]c1=O | > 4 mM (inactive) |
| NC(=O)CN1CCCCCC1=O | > 4 mM (inactive) |
| COC[C@]12CN(C=O)C3[C@@H]4[C@H](OC)C1[C@]3(C1CC3(O)C(OC)C(O)C4(OC(C)=O)C1C3OC(=O)c1ccccc1)[C@@H](OC)C[C@H]2O (some centres not stated) | > 4 mM (inactive) |
| COc1ccc2c(c1)c1n[nH]c(=S)nc1n2C | > 4 mM (inactive) |
| COC(CC(=O)O)c1nc2ccccc2s1 (configuration not stated) | > 4 mM (inactive) |
| Cc1cc(C(F)(F)F)n2nc(C(=O)O)c(Cl)c2n1 | > 4 mM (inactive) |
| C[C@@H]1O[C@@H](O[C@H]2[C@H](Oc3cc(O)c4c(=O)cc(-c5ccc(O)cc5)oc4c3)O[C@H](CO)[C@@H](O)[C@@H]2O)[C@H](O)[C@H](O)[C@H]1O | > 4 mM (inactive) |
| COc1ccc(C(=O)/C=C/c2ccccc2)cc1 | > 4 mM (inactive) |
| O=C(O)c1cccnc1-c1nc2ccccc2s1 | > 4 mM (inactive) |
| CS(=O)(=O)N1CCN(C(=O)c2ccccc2)C1 | > 4 mM (inactive) |
| COc1ccc2ccc(=O)oc2c1CC=C(C)C | > 4 mM (inactive) |

| SMILES | Kd |
| --- | --- |
| COc1ccc(-c2cc3nc4n(c(=O)c3s2)CCC4)cc1 | > 4 mM (inactive) |
| Nc1ccc2c(c1)CCCC2=O | > 4 mM (inactive) |
| O=C(CSC1=NCCS1)N1CCc2ccccc21 | > 4 mM (inactive) |
| CCOC(=O)c1c(C)cc(O)cc1O | > 4 mM (inactive) |
| O=C1Nc2ccccc2C1C1(O)C(=O)Nc2ccc(F)cc21 (configuration not stated) | > 4 mM (inactive) |
| O=C(O)C1CSC(c2ccc(Cl)cc2)N1 (configuration not stated) | > 4 mM (inactive) |
| O=C(Nc1nc2ccccc2s1)c1ccc(=O)[nH]n1 | > 4 mM (inactive) |
| CCc1noc(C)c1C(=O)N1CCOCC1 | > 4 mM (inactive) |
| CC(=O)Nc1ccc(Cl)c(C(N)=O)c1 | > 4 mM (inactive) |
| O=C1CC2OCC=C3CN4CC[C@]56c7ccccc7N1C5[C@H]2[C@H]3CC46 (some centres not stated) | > 4 mM (inactive) |
| CCCCCc1c2c(cc(O)c1C(=O)O)OC(=O)c1c(cc(OC)cc1C(=O)CCCC)O2 | > 4 mM (inactive) |
| O=C(NCc1cccc(Cl)c1)c1cnccn1 | > 4 mM (inactive) |
| O=c1[nH]cc(N2CCCCC2)c(=O)[nH]1 | > 4 mM (inactive) |
| NC(=O)Cc1nc(-c2ccccc2)cs1 | > 4 mM (inactive) |
| CC1(C)NC(=O)N(CCOc2ccc3c(c2)CCC3)C1=O | > 4 mM (inactive) |
| Cc1nc(-c2cccc(C(=O)O)c2)cs1 | > 4 mM (inactive) |
| Nc1nc(-c2ccccc2)cc(=O)[nH]1 | > 4 mM (inactive) |
| O=c1[nH]c2c(c(=O)n1C1CCCCC1)CCC2 | > 4 mM (inactive) |
| CC(=O)c1ccc(NC(=S)N2CCC(O)CC2)cc1 | > 4 mM (inactive) |
| Cc1cc(NC(=O)CSc2ccnc(=O)[nH]2)no1 | > 4 mM (inactive) |
| CC(C)(C)c1cc(NC(=O)c2cccnc2)no1 | > 4 mM (inactive) |
| N#Cc1cnc(N2CCCCC2)nc1N | > 4 mM (inactive) |
| Nc1ccc2c(c1)S(=O)(=O)C=C2 | > 4 mM (inactive) |
| N#Cc1sc2nc3c(c(-c4cccnc4)c2c1N)CCC3 | > 4 mM (inactive) |

| SMILES | Kd |
| --- | --- |
| Cc1nc2nc(-c3ccco3)nn2c(C)c1Cl | > 4 mM (inactive) |
| CC(=O)O[C@@H]1CC[C@@]2(C)C(CC[C@]3(C)C2CC=C2C4CC(C)(C)CC[C@]4(C(=O)O)CC[C@]23C)C1(C)C (some centres not stated) | > 4 mM (inactive) |
| CCCn1cnn2c(=O)cc(C)nc12 | > 4 mM (inactive) |
| COc1cc(C)c(S(=O)(=O)N2CCN(C)CC2)cc1C | > 4 mM (inactive) |
| O=C1C(=O)N(CN2CCN(CCO)CC2)c2ccccc21 | > 4 mM (inactive) |
| COc1cc(-c2coc3cc(OC)c(OC)c(OC)c3c2=O)cc(OC)c1OC | > 4 mM (inactive) |
| Cc1nc2nc(Cc3ccccc3)nn2c(C)c1Cl | > 4 mM (inactive) |
| Cc1cc(=O)c2c(O)cc(O)c(C)c2o1 | > 4 mM (inactive) |
| OCCNC(=S)Nc1ccc(F)cc1 | > 4 mM (inactive) |
| O=C(O)c1cc(O)c2c(c1)C(=O)c1cc(O)cc(O)c1C2=O | > 4 mM (inactive) |
| CCOC(=O)c1cnc2sccn2c1=O | > 4 mM (inactive) |
| Cc1noc(C)c1C(=O)N1CCC(Cc2ccccc2)CC1 | > 4 mM (inactive) |
| OCc1ccc2c(c1)CCO2 | > 4 mM (inactive) |
| O=C(O)c1cccc2nsnc12 | > 4 mM (inactive) |
| CCOC(=O)c1c[nH]c2c(F)cccc2c1=O | > 4 mM (inactive) |
| OC1COCc2nc3ccccc3n2C1 (configuration not stated) | > 4 mM (inactive) |
| Nc1nc2ccc(C(=O)O)cc2s1 | > 4 mM (inactive) |
| CS(=O)(=O)Nc1nnc(Cc2ccccc2)s1 | > 4 mM (inactive) |
| NCc1csc(-c2ccccc2)n1 | > 4 mM (inactive) |
| CCOc1cc(S(=O)(=O)N2CCOCC2)ccc1F | > 4 mM (inactive) |
| O=C1CSC(=O)N1c1cccc(O)c1 | > 4 mM (inactive) |
| CC1(C)C=Cc2c(cc3occ(-c4ccc5c(c4)OCO5)c(=O)c3c2O)O1 | > 4 mM (inactive) |
| Cc1cc(C)n2nc(Cc3ccccc3)nc2n1 | > 4 mM (inactive) |
| O=C(O)CS(=O)(=O)c1ccccc1 | > 4 mM (inactive) |

| SMILES | Kd |
| --- | --- |
| CC(=O)C1=C(O)C(=O)NC1c1ccccc1 (configuration not stated) | > 4 mM (inactive) |
| Cc1cc(SCCF)n2ncnc2n1 | > 4 mM (inactive) |
| O=C(NC(=S)NCCO)c1ccccc1 | > 4 mM (inactive) |
| COC(=O)c1noc(-c2ccc(OC)cc2)n1 | > 4 mM (inactive) |
| OCc1cc(-c2cccs2)on1 | > 4 mM (inactive) |
| CC1(C)SCC(C(=O)O)N1C=O (configuration not stated) | > 4 mM (inactive) |
| Cc1ccc(NC(=O)CC2NCCNC2=O)c(C)c1 (configuration not stated) | > 4 mM (inactive) |
| CC(=O)Oc1c(C)cc(O)c2ccccc12 | > 4 mM (inactive) |
| CC(=O)Oc1ccc(N2C(=O)C3C4C=CC(O4)C3C2=O)cc1 (configuration not stated) | > 4 mM (inactive) |
| C[C@@H](N)[C@@H](O)c1ccccc1 | > 4 mM (inactive) |
| OCc1c[nH]c2ccccc12 | > 4 mM (inactive) |
| COc1ccc2c(c1O)-c1c(OC)c(OC)cc3c1[C@H](C2)N(C)CC3 | > 4 mM (inactive) |
| Cc1ccc(C)n1/N=C1\NC(=O)CS1 | > 4 mM (inactive) |
| CC(C)=CCc1c2c(c3occ(-c4ccc(O)cc4)c(=O)c3c1O)C=CC(C)(C)O2 | > 4 mM (inactive) |
| O=C(c1cc2ccccc2o1)N1CCCCCC1 | > 4 mM (inactive) |
| Cn1[nH]c2nc3[nH]n(C)c(=O)c3c(-c3ccccc3)c2c1=O | > 4 mM (inactive) |
| O=C(O)CCC(=O)Nc1ccccn1 | > 4 mM (inactive) |
| CCCCCCCCCCCCCCCCCCOCC(O)CO (configuration not stated) | > 4 mM (inactive) |
| CSc1ccc(C(=S)N2CCN(C)CC2)cc1 | > 4 mM (inactive) |
| O=C(O)C1=C[C@@H](O)[C@@H](O)[C@H](O)C1 | > 4 mM (inactive) |
| OC1(c2ccc(Cl)cc2)CCNCC1 | > 4 mM (inactive) |
